Measured values from article PMC10412597, “Small molecule branched-chain ketoacid dehydrogenase kinase (BDK) inhibitors with opposing effects on BDK protein levels” (Nature Communications, 2023).
Read-outs that look alike come from different tables or passages of the source.

How the values were obtained:
PPAR-gamma [1] = target: T1, PPAR-gamma (Homo sapiens, UniProt P37231); test: biochemical; design: Cerep Bioprint off-target panel, ligand binding inhibition
T1 construct: gene PPARG
T1 sequence (P37231 1-505): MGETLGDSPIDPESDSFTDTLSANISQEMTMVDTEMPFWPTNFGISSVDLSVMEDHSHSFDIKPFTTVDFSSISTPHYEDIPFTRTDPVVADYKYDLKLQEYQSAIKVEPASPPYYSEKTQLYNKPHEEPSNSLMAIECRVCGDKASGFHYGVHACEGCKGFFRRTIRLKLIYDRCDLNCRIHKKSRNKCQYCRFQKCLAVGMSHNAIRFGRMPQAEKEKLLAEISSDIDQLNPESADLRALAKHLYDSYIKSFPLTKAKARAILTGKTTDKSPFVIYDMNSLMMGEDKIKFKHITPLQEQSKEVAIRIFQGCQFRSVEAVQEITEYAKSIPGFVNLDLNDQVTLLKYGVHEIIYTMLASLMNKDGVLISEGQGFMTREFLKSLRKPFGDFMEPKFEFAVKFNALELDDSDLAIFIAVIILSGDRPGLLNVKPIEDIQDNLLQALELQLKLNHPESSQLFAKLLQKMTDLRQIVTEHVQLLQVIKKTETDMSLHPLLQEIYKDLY
Experimental: (§1) To discover a potent and selective BDK inhibitor, a subset of the Pfizer compound collection was screened. […] Off target activity was assessed in both CEREP and kinase panels (Supplementary Tables 2, 3).

Phosphodiesterase 3B = target: T2, Phosphodiesterase 3B (Homo sapiens, UniProt Q13370); design: Cerep Bioprint off-target panel, enzyme or kinase inhibition; conditions: inhibitor
T2 construct: gene PDE3B
Experimental: as §1

LCK = LCK (Homo sapiens, UniProt P06239); design: Cerep Bioprint off-target panel, enzyme or kinase inhibition; conditions: inhibitor
Experimental: as §1

Aurora A Kinase = target: T3, Aurora A Kinase (Homo sapiens, UniProt O14965); design: Cerep Bioprint off-target panel, enzyme or kinase inhibition; conditions: inhibitor
T3 construct: gene AURKA
Experimental: as §1

SRC = SRC (Homo sapiens, UniProt P12931); design: Cerep Bioprint off-target panel, enzyme or kinase inhibition; conditions: inhibitor
SRC, sequence (P12931 whole entry): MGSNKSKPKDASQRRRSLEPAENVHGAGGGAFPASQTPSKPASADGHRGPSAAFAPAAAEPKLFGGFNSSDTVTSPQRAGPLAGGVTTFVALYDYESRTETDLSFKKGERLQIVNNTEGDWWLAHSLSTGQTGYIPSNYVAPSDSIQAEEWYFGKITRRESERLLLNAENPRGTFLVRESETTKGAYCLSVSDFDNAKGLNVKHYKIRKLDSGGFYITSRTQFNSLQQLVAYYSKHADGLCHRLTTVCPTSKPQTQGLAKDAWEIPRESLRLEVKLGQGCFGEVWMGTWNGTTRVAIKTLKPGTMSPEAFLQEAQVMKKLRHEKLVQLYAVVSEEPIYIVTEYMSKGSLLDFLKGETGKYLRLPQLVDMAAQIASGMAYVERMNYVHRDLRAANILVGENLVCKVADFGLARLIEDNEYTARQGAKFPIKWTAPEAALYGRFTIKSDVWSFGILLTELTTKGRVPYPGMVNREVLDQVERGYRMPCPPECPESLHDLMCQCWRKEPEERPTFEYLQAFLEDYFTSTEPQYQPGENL
Experimental: as §1

Kdr Kinase (VEGFR2) = Kdr Kinase (VEGFR2) (Homo sapiens, UniProt P35968); design: Cerep Bioprint off-target panel, enzyme or kinase inhibition; conditions: inhibitor
Experimental: as §1

EGFR Kinase = target: T4, EGFR Kinase (Homo sapiens, UniProt P00533); design: Cerep Bioprint off-target panel, enzyme or kinase inhibition; conditions: inhibitor
T4 construct: kinase
Experimental: as §1

Abl Kinase = target: T5, Abl Kinase (Homo sapiens, UniProt P00519); design: Cerep Bioprint off-target panel, enzyme or kinase inhibition; conditions: inhibitor
T5 construct: gene ABL1
T5 sequence (P00519 whole entry): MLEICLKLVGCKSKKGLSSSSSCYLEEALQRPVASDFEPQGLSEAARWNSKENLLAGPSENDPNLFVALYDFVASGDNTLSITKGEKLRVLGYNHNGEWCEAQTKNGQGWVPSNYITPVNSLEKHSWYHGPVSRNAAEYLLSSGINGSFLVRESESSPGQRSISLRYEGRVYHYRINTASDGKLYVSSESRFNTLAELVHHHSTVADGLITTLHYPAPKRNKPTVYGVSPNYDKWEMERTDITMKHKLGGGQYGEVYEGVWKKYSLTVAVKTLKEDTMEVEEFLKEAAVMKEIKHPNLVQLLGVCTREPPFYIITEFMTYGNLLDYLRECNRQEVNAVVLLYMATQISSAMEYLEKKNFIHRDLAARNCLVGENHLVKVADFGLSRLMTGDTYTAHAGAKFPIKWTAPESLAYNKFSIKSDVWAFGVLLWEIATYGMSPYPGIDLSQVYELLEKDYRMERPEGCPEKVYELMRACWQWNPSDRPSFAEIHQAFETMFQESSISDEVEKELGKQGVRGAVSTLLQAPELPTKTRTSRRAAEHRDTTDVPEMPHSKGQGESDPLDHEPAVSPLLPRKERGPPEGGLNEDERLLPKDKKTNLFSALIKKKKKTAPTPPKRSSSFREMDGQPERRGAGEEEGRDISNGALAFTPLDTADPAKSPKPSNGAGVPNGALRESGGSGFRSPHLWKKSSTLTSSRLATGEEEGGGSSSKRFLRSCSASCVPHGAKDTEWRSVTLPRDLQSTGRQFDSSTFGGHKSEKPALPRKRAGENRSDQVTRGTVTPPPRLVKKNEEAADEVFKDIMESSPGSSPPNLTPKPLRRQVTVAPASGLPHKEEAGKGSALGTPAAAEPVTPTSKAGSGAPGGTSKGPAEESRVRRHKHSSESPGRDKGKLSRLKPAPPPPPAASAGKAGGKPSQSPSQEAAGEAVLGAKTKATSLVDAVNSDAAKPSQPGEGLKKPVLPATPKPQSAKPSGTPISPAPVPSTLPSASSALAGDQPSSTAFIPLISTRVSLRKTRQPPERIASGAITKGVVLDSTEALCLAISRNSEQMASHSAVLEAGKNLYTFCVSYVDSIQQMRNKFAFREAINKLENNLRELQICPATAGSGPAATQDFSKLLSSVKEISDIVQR
Experimental: as §1

Cyclooxygenase 2 = target: T6, Cyclooxygenase 2 (Homo sapiens, UniProt P35354); design: Cerep Bioprint off-target panel, enzyme or kinase inhibition; conditions: inhibitor
T6 construct: gene PTGS2
Experimental: as §1

Acetylcholinesterase = target: T7, Acetylcholinesterase (Homo sapiens, UniProt P22303); design: Cerep Bioprint off-target panel, enzyme or kinase inhibition; conditions: inhibitor
T7 construct: gene ACHE
Experimental: as §1

P38alpha MAP Kinase = target: T8, P38alpha MAP Kinase (Homo sapiens, UniProt Q16539); design: Cerep Bioprint off-target panel, enzyme or kinase inhibition; conditions: inhibitor
T8 construct: gene MAPK14
Experimental: as §1

[2] = target: T9, Angiotensin Coverting Enzyme (Homo sapiens, UniProt P12821); design: Cerep Bioprint off-target panel, enzyme or kinase inhibition; conditions: inhibitor
T9 construct: gene ACE
T9 sequence (P12821 whole entry): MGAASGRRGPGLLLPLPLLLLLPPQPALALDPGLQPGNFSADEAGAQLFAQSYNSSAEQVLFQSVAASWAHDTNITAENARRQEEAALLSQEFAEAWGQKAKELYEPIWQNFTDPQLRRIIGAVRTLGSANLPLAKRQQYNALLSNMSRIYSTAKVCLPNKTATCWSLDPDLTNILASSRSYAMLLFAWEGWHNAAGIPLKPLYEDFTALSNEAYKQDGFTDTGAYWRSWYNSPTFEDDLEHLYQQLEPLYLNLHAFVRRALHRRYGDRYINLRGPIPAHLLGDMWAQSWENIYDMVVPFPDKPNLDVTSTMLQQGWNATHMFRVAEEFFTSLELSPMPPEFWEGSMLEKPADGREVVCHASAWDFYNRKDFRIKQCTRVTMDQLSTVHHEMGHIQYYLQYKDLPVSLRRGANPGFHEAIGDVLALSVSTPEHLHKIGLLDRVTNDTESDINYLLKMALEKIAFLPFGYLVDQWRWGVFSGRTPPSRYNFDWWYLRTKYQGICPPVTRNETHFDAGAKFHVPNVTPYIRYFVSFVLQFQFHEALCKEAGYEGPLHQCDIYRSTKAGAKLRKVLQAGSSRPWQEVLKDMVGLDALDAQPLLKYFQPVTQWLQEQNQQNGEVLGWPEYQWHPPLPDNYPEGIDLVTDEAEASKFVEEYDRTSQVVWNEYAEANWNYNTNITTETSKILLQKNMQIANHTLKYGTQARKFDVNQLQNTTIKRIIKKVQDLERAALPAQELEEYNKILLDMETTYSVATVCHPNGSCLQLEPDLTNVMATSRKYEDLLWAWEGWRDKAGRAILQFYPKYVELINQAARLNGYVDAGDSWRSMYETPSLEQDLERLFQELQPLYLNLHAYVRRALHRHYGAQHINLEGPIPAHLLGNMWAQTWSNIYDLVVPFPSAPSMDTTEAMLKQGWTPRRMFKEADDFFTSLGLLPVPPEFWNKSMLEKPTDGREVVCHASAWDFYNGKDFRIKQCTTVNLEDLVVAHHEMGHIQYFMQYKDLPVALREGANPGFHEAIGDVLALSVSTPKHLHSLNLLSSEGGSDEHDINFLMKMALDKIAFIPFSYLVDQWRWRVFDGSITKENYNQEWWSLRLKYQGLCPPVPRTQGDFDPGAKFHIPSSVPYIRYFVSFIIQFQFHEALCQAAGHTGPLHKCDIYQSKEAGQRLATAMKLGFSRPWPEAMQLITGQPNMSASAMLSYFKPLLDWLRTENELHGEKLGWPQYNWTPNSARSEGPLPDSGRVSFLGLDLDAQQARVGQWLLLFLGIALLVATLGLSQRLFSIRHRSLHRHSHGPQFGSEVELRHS
Experimental: as §1

INSR = INSR (Homo sapiens, UniProt P06213); design: Invitrogen kinase panel, per cent inhibition of kinase activity; conditions: 10 µM, inhibitor
INSR, sequence (P06213 whole entry): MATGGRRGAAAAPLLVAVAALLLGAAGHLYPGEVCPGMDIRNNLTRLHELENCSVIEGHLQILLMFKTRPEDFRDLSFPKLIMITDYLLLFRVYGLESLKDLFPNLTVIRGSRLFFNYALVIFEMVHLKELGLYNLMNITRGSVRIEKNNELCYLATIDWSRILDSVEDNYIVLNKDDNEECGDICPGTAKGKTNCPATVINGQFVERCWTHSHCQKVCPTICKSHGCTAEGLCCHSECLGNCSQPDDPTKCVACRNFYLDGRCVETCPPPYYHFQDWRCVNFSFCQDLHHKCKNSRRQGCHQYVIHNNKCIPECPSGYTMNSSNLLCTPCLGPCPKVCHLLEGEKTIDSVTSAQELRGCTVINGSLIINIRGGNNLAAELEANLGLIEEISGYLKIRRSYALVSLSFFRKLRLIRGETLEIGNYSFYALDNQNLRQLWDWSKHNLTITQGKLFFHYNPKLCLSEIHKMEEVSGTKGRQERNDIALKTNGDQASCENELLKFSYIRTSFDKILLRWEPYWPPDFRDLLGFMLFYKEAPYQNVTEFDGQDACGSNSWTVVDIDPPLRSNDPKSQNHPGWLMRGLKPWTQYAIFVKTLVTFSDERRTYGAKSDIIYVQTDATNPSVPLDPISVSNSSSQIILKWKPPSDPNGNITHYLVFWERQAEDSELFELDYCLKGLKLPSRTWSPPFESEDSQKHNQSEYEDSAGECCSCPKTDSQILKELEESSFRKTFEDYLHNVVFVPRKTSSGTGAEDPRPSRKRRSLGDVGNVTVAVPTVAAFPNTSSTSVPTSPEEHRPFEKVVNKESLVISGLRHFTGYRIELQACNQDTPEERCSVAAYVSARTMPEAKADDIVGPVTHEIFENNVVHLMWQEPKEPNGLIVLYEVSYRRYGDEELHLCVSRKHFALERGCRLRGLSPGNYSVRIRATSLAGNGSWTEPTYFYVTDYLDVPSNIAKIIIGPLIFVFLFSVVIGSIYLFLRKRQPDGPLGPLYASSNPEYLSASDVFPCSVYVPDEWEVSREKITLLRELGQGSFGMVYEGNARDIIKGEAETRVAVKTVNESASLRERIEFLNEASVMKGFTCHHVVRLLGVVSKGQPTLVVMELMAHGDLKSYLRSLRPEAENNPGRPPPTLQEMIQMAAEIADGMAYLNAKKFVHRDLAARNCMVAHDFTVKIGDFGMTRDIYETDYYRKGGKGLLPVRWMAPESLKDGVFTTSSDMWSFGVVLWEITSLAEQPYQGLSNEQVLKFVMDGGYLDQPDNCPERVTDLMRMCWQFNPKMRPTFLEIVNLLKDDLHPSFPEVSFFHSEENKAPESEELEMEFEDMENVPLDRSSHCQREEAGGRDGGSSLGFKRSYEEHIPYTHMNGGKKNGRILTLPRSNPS
Experimental: as §1

Dopamine Transporter = target: T10, Dopamine Transporter (Homo sapiens, UniProt Q01959); design: Cerep Bioprint off-target panel, ligand binding inhibition; conditions: binder
T10 construct: gene SLC6A3
Experimental: as §1

Serotonin Transporter = target: T11, Serotonin Transporter (Homo sapiens, UniProt P31645); design: Cerep Bioprint off-target panel, ligand binding inhibition; conditions: binder
T11 construct: gene SLC6A4
Experimental: as §1

Androgen Receptor = target: T12, Androgen Receptor (Homo sapiens, UniProt P10275); design: Cerep Bioprint off-target panel, ligand binding inhibition; conditions: binder
T12 construct: gene AR
Experimental: as §1

PPAR-gamma [3] = target: T1, PPAR-gamma; design: Cerep Bioprint off-target panel, ligand binding inhibition; conditions: binder
Experimental: as §1

Glucocorticoid Receptor = target: T13, Glucocorticoid Receptor (Homo sapiens, UniProt P04150); design: Cerep Bioprint off-target panel, ligand binding inhibition; conditions: binder
T13 construct: gene NR3C1
Experimental: as §1

Choline Transporter = target: T14, Choline Transporter (Homo sapiens, UniProt Q9GZV3); design: Cerep Bioprint off-target panel, ligand binding inhibition; conditions: binder
T14 construct: gene SLC5A7
Experimental: as §1

Serotonin 5-HT3 = target: T15, Serotonin 5-HT3 (Homo sapiens, UniProt P46098); design: Cerep Bioprint off-target panel, ligand binding inhibition; conditions: binder
T15 construct: gene HTR3A
T15 sequence (P46098 whole entry): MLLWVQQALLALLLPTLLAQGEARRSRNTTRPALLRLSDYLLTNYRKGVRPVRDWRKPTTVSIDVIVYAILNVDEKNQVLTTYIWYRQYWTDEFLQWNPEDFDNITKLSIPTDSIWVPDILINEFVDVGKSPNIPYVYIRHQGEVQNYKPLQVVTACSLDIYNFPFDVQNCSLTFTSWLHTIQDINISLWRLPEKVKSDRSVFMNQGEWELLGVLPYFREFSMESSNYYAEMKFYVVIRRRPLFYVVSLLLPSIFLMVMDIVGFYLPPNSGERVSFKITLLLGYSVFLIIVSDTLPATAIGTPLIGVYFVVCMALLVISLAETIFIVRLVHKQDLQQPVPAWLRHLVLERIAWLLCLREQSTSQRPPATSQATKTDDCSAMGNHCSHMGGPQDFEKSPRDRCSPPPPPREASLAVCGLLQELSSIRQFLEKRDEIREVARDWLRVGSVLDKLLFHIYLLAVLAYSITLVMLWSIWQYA
Experimental: as §1

GABAa1 Receptor = target: T16, GABAa1 Receptor (Homo sapiens, UniProt P14867+P18507+P47870); design: Cerep Bioprint off-target panel, ligand binding inhibition; conditions: binder
T16 construct: gene GABRA1; alpha1
Experimental: as §1

[4] = target: T17, Norepinephrine Transporter (Homo sapiens, UniProt P23975); design: Cerep Bioprint off-target panel, ligand binding inhibition; conditions: binder
T17 construct: gene SLC6A2
Experimental: as §1

[5] = target: T18, Nicotinic Acetylcholine Receptor (alpha4, beta2 subunit containing) (Homo sapiens, UniProt P17787+P43681); design: Cerep Bioprint off-target panel, ligand binding inhibition; conditions: binder
T18 construct: gene CHRNB2
Experimental: as §1

O=C(O)c1sc2cc(F)sc2c1Cl [PF-07208254, 3-chloro-5-fluorothieno[3,2-b]thiophene-2-carboxylic acid]
IC50 (PPAR-gamma [1]): 86 µM
% Inhibition PF-07208254 (Phosphodiesterase 3B; 100 µM): -9%
% Inhibition PF-07208254 (LCK; 100 µM): -4%
% Inhibition PF-07208254 (Aurora A Kinase; 100 µM): 15%
% Inhibition PF-07208254 (SRC; 100 µM): 11%
% Inhibition PF-07208254 (Kdr Kinase (VEGFR2); 100 µM): 57%
% Inhibition PF-07208254 (EGFR Kinase; 100 µM): 19%
% Inhibition PF-07208254 (Abl Kinase; 100 µM): 42%
% Inhibition PF-07208254 (Cyclooxygenase 2; 100 µM): 0%
% Inhibition PF-07208254 (Acetylcholinesterase; 100 µM): -4%
% Inhibition PF-07208254 (P38alpha MAP Kinase; 100 µM): 35%
% Inhibition PF-07208254 ([2]; 100 µM): -4%
ATP = 1 mM % Inhibition PF-07208254 (INSR): 0.0%
ATP = Km % Inhibition PF-07208254 (INSR): 3.1%
% Inhibition (binding) PF-07208254 (Dopamine Transporter; 100 µM): 7%
% Inhibition (binding) PF-07208254 (Serotonin Transporter; 100 µM): -3%
% Inhibition (binding) PF-07208254 (Androgen Receptor; 100 µM): -4%
% Inhibition (binding) PF-07208254 (PPAR-gamma [3]; 100 µM): 62%
% Inhibition (binding) PF-07208254 (Glucocorticoid Receptor; 100 µM): 4%
% Inhibition (binding) PF-07208254 (Choline Transporter; 100 µM): -15%
% Inhibition (binding) PF-07208254 (Serotonin 5-HT3; 100 µM): -14%
% Inhibition (binding) PF-07208254 (GABAa1 Receptor; 100 µM): -12%
% Inhibition (binding) PF-07208254 ([4]; 100 µM): -15%
% Inhibition (binding) PF-07208254 ([5]; 100 µM): -6%

CCC1(COc2ccc(-c3csc(-c4ccccc4C(=O)O)n3)cn2)CC1 [PF-07247685, 2-(4-{6-[(1-ethylcyclopropyl)methoxy]pyridin-3-yl}-1,3-thiazol-2-yl)benzoic acid]
IC50 (PPAR-gamma [1]; read-out: IC50 binding PF-07247685): 50 µM
% Inhibition PF-07247685 (Phosphodiesterase 3B; 10 µM): -16%
% Inhibition PF-07247685 (LCK; 10 µM): -2%
% Inhibition PF-07247685 (Aurora A Kinase; 10 µM): -7%
% Inhibition PF-07247685 (SRC; 10 µM): -8%
% Inhibition PF-07247685 (Kdr Kinase (VEGFR2); 10 µM): -11%
% Inhibition PF-07247685 (EGFR Kinase; 10 µM): -6%
% Inhibition PF-07247685 (Abl Kinase; 10 µM): 11%
% Inhibition PF-07247685 (Cyclooxygenase 2; 10 µM): 4%
% Inhibition PF-07247685 (Acetylcholinesterase; 10 µM): -4%
% Inhibition PF-07247685 (P38alpha MAP Kinase; 10 µM): 3%
% Inhibition PF-07247685 ([2]; 10 µM): -31%
ATP = 1 mM % Inhibition PF-07247685 (INSR): -0.4%
ATP = Km % Inhibition PF-07247685 (INSR): 3.4%
% Inhibition (binding) PF-07247685 (Dopamine Transporter; 10 µM): -1%
% Inhibition (binding) PF-07247685 (Serotonin Transporter; 10 µM): 2%
% Inhibition (binding) PF-07247685 (Androgen Receptor; 10 µM): -8%
% Inhibition (binding) PF-07247685 (PPAR-gamma [3]; 10 µM): 21%
% Inhibition (binding) PF-07247685 (Glucocorticoid Receptor; 10 µM): 0%
% Inhibition (binding) PF-07247685 (Choline Transporter; 10 µM): -12%
% Inhibition (binding) PF-07247685 (Serotonin 5-HT3; 10 µM): 0%
% Inhibition (binding) PF-07247685 (GABAa1 Receptor; 10 µM): -21%
% Inhibition (binding) PF-07247685 ([4]; 10 µM): 6%
% Inhibition (binding) PF-07247685 ([5]; 10 µM): -4%
